Measured values from ChEMBL document CHEMBL3507680, “University of Dundee, Gates Library screen for HepG2 cell viability”.

assay: Human HepG2 cell viability assay in 384 well format; assay type: toxicity, cell-based; parameters: dose 125 nL, time 70.5 hour; cytotoxicity at 70.5 h: concentration not given beside the values; conditions: HepG2 cells, read-out: Inhibition

Structure (SMILES)	cytotoxicity at 70.5 h
CCCOc1cc(C)ccc1NC(=O)NCCC(=O)N(C)C	-2.29%
COCC(C)NC(=O)c1nnn(-c2ccc(F)cc2)n1 (stereo unspecified)	-5.45%
CCCN(Cc1cccnc1)C(=O)C1CCNC1 (stereo unspecified)	-1.17%
Cc1nc(-c2ccccc2)n(CC(=O)NC(C2CC2)C2CC2)n1	-4.87%
COc1ccccc1-n1c(C)cc(CNC(=O)NC(C)C)c1C	-9.03%
CC(=O)N1CCCN(C2CCCCc3ccccc32)CC1 (stereo unspecified)	-3.31%
CC(C)CSCCCNC(=O)C1CCOCC1	-5.98%
Cc1noc(C)c1CN1CCc2ncc(Cn3cccn3)n2CC1	-5.78%
Cc1ccccc1-n1cc(-c2ccnc(NC(CO)C(C)C)n2)cn1 (stereo unspecified)	-7.36%
CCc1nc(CN(C)C2CCN(Cc3ccc(Cl)s3)C2)no1 (stereo unspecified)	8.41%
c1csc(CN2CCC3(CC2)COCCN3CC2CC2)n1	-10.1%
CCS(=O)(=O)N1CCc2ccc(NC(=O)Nc3ccccc3)cc21	9.4%
CC(=O)N(Cc1noc(C)n1)C1CCN(Cc2ncc(C(C)C)o2)C1 (stereo unspecified)	51.4%
Cc1nn(CCC(=O)N(C)Cc2c(Cl)cnn2C)cc1Br	-14.9%
CC(C)n1cnnc1CN(C)Cc1ccc(CO)o1	-22.8%
Oc1cc(C2CCCCN2CC2CC2)nc(-c2ccncc2)n1 (stereo unspecified)	-10.4%
Cc1ncc2c(n1)CN(Cc1noc(C3CC3)n1)CC2	15.6%
Cc1nc(C2CCCN(C(=O)c3sc(C)nc3C)C2)no1 (stereo unspecified)	37.2%
COCCN(CCC#N)S(=O)(=O)c1cc(F)ccc1F	-2.55%
CCC(CNC(=O)c1c(C)nn(C)c1OC)Oc1ccccc1 (stereo unspecified)	-7.65%
CCc1ncc(C(=O)N(C)CC2Cc3ccccc3O2)cn1 (stereo unspecified)	25.4%
COc1cc(N2C[C@@H]3COC[C@]3(COc3ccccn3)C2)ncn1	-11.5%
Cc1cnccc1-c1cnn(CCNC(=O)C(C)(C)C)c1C1CC1	-9.87%

Structure (SMILES)	cytotoxicity at 70.5 h
CC(NCc1cnc(C2CCC2)s1)c1ccccc1-n1cccn1 (stereo unspecified)	-3.26%
O=C1c2cnc(N3CCCC3)nc2CN1C1CCS(=O)(=O)C1 (stereo unspecified)	-2.78%
Cc1c(C(=O)N2CCN(C)CC2)n(C)c2ccc(Cl)cc12	-11.7%
CC1CCN(C(=O)c2cn(-c3cc(N4CCOCC4)ncn3)cn2)CC1	-14%
COc1cccc(CC(=O)N2CCCC(c3n[nH]c4nccnc34)C2)c1 (stereo unspecified)	-10.4%
CCOc1ccc(NC(=O)NCc2csc(NC)n2)cc1C	-5.86%
c1ccc(CCN2CCOC3(CCc4ccccc43)C2)nc1 (stereo unspecified)	-15.8%
O=C(c1cccnc1)N1CCC2(CC1)CCN(c1ccsc1)C2=O	-4.42%
COC1COC2(CCN(C(=O)c3cnc(C)cn3)CC2)C1 (stereo unspecified)	-6.81%
CC(=O)N1CCC(C(=O)NC2CC(C)(C)Oc3cc(C)ccc32)CC1 (stereo unspecified)	12.8%
Cc1cnc(-c2nc(O)c3c(n2)CN(C(=O)C2CCOC2)CC3)cn1 (stereo unspecified)	-1.76%
c1ccc(N2CCOC3(CCCN(c4nncs4)C3)C2)nc1 (stereo unspecified)	-2.74%
O=c1[nH]nc(C2CC2)n1-c1cccc(Cl)c1	-4.41%
O=C(C1CC1)N1CCC2(CC1)OCCO2	-6.55%
CSc1ncc(CN(C)C(C)c2cccnc2)cn1 (stereo unspecified)	-0.91%
Cc1nc(CN2CCCN(Cc3nc4c(F)cccc4[nH]3)CC2)no1	-10.4%
Cc1cccc(N2CCc3ncc(CNc4ccccn4)n3CC2)n1	-3.22%
CC(=O)NC(C)CC(=O)NCc1cccnc1Oc1ccccc1C (stereo unspecified)	-6.45%
Cn1c(CN2CCCC2)nnc1C1CCCN(C(=O)C2CCOCC2)C1 (stereo unspecified)	-3.01%
Cc1noc(C(C)C)c1C(=O)NCC1CCCN1Cc1ccccc1 (stereo unspecified)	9.45%
O=C(N1CCCC1)N1C[C@H]2CC[C@@H]1CN(Cc1ccncc1)C2	17.1%
COc1cccc2c1OCC(NCc1cnn(-c3ccccc3)c1)C2 (stereo unspecified)	14.4%
Cc1nc(-c2ccccc2)sc1CNC(=O)c1ccc(=O)n(C)c1	-3.22%
